The text below walks through data of patent US10982100B2, “Slippery liquid-infused porous surfaces and biological applications thereof” (President and Fellows of Harvard College, priority 2011, dated 2021).

Where two headings read alike, the source gives them in different places. Bounds are passed on as bounds.

Data set [1] relates to Pseudomonas aeruginosa (PA-14).
Experimental: (§1) The toxicity screening assay was based on adding 1% and 0.01% of each commercial product to 10 mL aliquots of tryptone broth, which were inoculated with 1% initial seeding concentration of Pseudomonas aeruginosa (PA-14) preculture and incubated at 37° C. overnight in an orbital shaker. The shaken culture was serially diluted, plated, and incubated for colony forming unit (CFU) quantification.
A further data set has as its system P. aeruginosa. The settings on record: 1% and 0.1% concentrations; 3, 6, 9, and 30 hours; 550 nm.
For data set [2], the system named is Pseudomonas aeruginosa (PA-14). In words: Toxicity screening of lubricating fluids by CFU quantification. Conditions: 1% versus 0.01% of product in tryptone broth, 37° C. overnight, orbital shaker.
Experimental: as §1
Data set [3] is described as follows: Contact angles of various liquids on flat solids. It is filed as physicochemical. Further details: unit not given here. The method, then:
The behavior of liquids on surfaces is described by an equilibrium contact angle. An equilibrium contact angle, θ, is the angle at which a liquid/vapor interface meets a solid surface, which is determined by the interactions across the three interfaces, e.g., solid/liquid/vapor. […] The upper limit is known as the apparent advancing contact angle (θA), whereas the lower limit is referred as the apparent receding contact angle (θR). The difference between these values is known as contact angle hysteresis (i.e., Δθ=θA−θR, where θA≥θ≥θR), which characterizes the liquid repellency of a surface. Conventionally, equilibrium contact angle can be roughly estimated by the average of the advancing and receding angles (i.e., θ=(θA+θR)/2), or by a static contact angle, θstatic (i.e., θ=θstatic).
In practice, contact angle measurement can be performed by a number of different well-established techniques, such as the sessile drop method and the Wilhelmy method. In particular, the sessile drop method is among the most popular technique for contact angle measurement. In this technique, a liquid droplet is deposited on a targeted solid surface, where the liquid profile is captured by an optical system of a goniometer and geometrically fitted to obtain the contact angle. The contact angle measured from a static liquid droplet deposited on the surface is known as the static contact angle, θstatic. Using the same system, advancing contact angle, θA, can be measured while the volume of the drop is increasing until the wetting line starts to advance. Receding contact angle, θR, can be measured by decreasing the volume of the drop and determining the contact angle just before the wetting line recedes. Alternatively, the advancing and the receding angles of the liquid drop can also be determined by gradually tilting the solid surface until the liquid drop starts to move.

Data set [4] can be described thus: Leaching of infiltrated oil in a microfluidic system under water flow. Format: physicochemical. The method, then:
Experiments were conducted to determine whether fluid from SLIPS leach into the surrounding biological fluid. A nanostructured post array surface (2 μm tall posts, 300 nm diameter, 0.9 μm spacing) with infiltrated perfluorinated oil (Fluorinert FC-70) was integrated into a microfluidic system. Deionized water flowed into the channel at a rate of 12 mL/min (i.e., 720 mL/hr) for 5 minutes. […] The slipperiness of the surface was examined by putting a droplet of decane on the surface. If decane applied to the surface maintains its mobility on the surface, then the lubricants remain attached on the structured surface. However, if decane remains pinned on the surface, the lubricant layer has not been maintained. Leaching can also be monitored by extracting fluid that has passed over SLIPS into a fluorinated solvent followed by followed by chromatography and mass spectrometry and 19F-NMR.
Defining maximum leaching of the infiltrated fluid as the ratio between the total amounts of the perfluorinated oil infiltrated the surface and the volume of water processed in the microfluidic system, the maximum leaching was <0.2%. Because perfluorocarbons are already approved by the Food and Drug Administration as blood substitutes, leaching of this amount of oil is expected to be harmless. […]

A short description of data set [5]: Surface tension of polar and non-polar liquids. It is filed as physicochemical. An excerpt: Fluid-fluid interfacial tension can be measured by many well-established techniques, such as the Wilhelmy plate method, the Du Noüy ring method, and the pendant drop method (e.g., see Drelich et al., in Encyclopedia of Surface and Colloid Science, pp. 3152-3166, Marcel Dekker Inc, 2002, the contents of which is incorporated by reference herein in its entirety). Among all of the techniques, the pendant drop method is among the most popular and versatile technique, which can be easily extended to a two-liquid system. The pendant drop method measures the shape of a fluid-fluid interface and quantifies the shape distortion due to the competition between the fluid-fluid interfacial tension and gravity. In practice, a drop of denser fluid (e.g., Object A) is suspended by a syringe needle in medium X (i.e., air/water/the lubricating fluid). Owing to the influence of gravity, the denser liquid droplet will be deformed as the liquid volume increases. The shape profile of the liquid droplet is captured by an optical system and subsequently analyzed by a computer software when the liquid volume is increased to the maximum possible size (i.e., before the liquid drop is detached from the syringe needle). The interfacial tension of the fluid-fluid interface, γ, can then be deduced from the formula, γ=ΔρgD^2/H, where Δρ is the density difference between the two immiscible fluids, g is gravity, D is equatorial diameter of the liquid droplet, and H is drop shape dependent parameters which is a function of the shape profile of the droplet.

[6] abbreviates: flat solid S. (silanized epoxy).

For `FC1(F)C(F)(F)C(F)(F)C2(F)C(F)(F)C(F)(F)C(F)(F)C(F)(F)C2(F)C1(F)F` (centres unmarked) [Perfluorodecalin], the “toxicity screening, CFU” value in data set [1] was “Significantly reduced CFU”. In addition, the “bacterial growth (optical densities) compared to control culture” value in the data set on P. aeruginosa was “statistically indistinguishable bacterial growth”.
Regarding `FC(F)(F)C(F)(F)C(F)(F)C(F)(F)C(F)(F)N(C(F)(F)C(F)(F)C(F)(F)C(F)(F)C(F)(F)F)C(F)(F)C(F)(F)C(F)(F)C(F)(F)C(F)(F)F` [FC-70, perfluoro-tripentylamine], the “toxicity screening, CFU” value in data set [2] is reported as “Significantly reduced CFU”. In addition, in data set [3] (flat solid Epoxy), the “Measured contact angle θadv” value was found to be 35.1 ± 0.6, the “Measured contact angle θrec” value came to 26.7 ± 1.4 and the “Measured contact angle θstatic” value was found to be 33.5 ± 1.1. In data set [3] (setting [6]), the “Measured contact angle θadv” value is on record as 23.7 ± 4.1, the “Measured contact angle θrec” value amounted to 0.0 ± 0.0 and the “Measured contact angle θstatic” value amounted to 14.1 ± 0.8. Moreover, the “retention of infiltrated oil on nanostructured surface” value in data set [4] (deionized water 12 mL/min for 5 minutes, nanostructured post array) is reported as “remained intact”. In addition, the maximum leaching in data set [4] (ratio of total infiltrated oil to volume of water processed) is recorded as under 0.2%. The “bacterial growth (optical densities) compared to control culture” value in the data set with P. aeruginosa is listed as “statistically indistinguishable bacterial growth”. Besides, the “Surface Tension” value in data set [5] is listed as 17.1 ± 0.3 mN/m.
As to `O=CCCCC=O` [glutaraldehyde, reference compound], the “bacterial growth (optical densities) compared to control culture” value in the data set on P. aeruginosa is reported as “massive toxicity”.
